Results: US4943574A, “(1H-azol-1-ylmethyl) substituted benzotriazole derivatives and pharmaceutical compositions containing them” (Janssen Pharmaceutica N.V., priority 1989, dated 1990)
Where a name gives a salt, the structure may show the parent alone. Read-outs that look alike come from different tables or passages of the source.

Key:
aromatase [1] = test: In vivo-inhibition of the aromatase activity (plasma estradiol in PMSG-injected immature female Wistar rats); parameters: species or system rat (immature female Wistar rats)
Method: Immature female Wistar rats weighing 120 g were injected subcutaneously with 200 I.U. of pregnant mare's serum gonadotropin (PMSG). […] Control animals received 20% polyethyleneglycol only. Two hours following drug or placebo administration the rats were killed by decapitation and trunk blood was collected on heparine. Plasma estradiol concentrations were measured by standard radio-immunological procedures.

aromatase [2] = target: T1, aromatase (Homo sapiens, UniProt P11511); test: biochemical; details: read-out: IC50-values (concentration of the compound required to obtain 50% inhibition of the estrogen synthesis)
T1 sequence (P11511 1-503): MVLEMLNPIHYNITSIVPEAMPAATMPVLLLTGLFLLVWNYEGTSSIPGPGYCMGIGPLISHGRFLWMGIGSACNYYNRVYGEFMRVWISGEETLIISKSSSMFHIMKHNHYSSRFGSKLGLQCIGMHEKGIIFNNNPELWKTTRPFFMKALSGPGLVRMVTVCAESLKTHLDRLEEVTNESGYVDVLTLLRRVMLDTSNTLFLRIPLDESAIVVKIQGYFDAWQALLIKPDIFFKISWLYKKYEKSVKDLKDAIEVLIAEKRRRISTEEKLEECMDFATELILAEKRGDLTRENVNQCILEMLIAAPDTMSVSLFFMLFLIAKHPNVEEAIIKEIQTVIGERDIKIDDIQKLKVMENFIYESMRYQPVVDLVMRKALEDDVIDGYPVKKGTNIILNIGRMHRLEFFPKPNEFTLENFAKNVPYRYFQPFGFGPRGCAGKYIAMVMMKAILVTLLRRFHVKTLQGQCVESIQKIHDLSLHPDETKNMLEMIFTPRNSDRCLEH
Method: Human placental microsomes were diluted in potassium phosphate buffer (0.1M, pH 7.4) to give about 50% conversion of androgens to estrogens (protein content: about 0.5 mg). Four ml human placental microsomes were incubated in a final volume of 5 ml with 0.2 μCi1,2[3H]-androstenedione, 2 μg androstendione and 5 μl of test compound and/or dimethyl sulfoxide (DMSO). […] The reaction was initiated by the addition of androstenedione and proceeded for 30 min at 37° C. During the incubation period, the mixtures were gassed with air. In this assay, aromatization of androstenedione results in the production of [3H]-H2 O which is isolated by extracting the samples with chloroform to remove the free steroid.

[3] = 1 mg/kg oral gavage, two hours following administration, PMSG-injected immature female Wistar rats
[4] = human placental microsomes, 30 min at 37° C., pH 7.4, 1,2[3H]androstenedione

| IC50 (aromatase [2]; [4]) [nM] | SMILES | % recovery estradiol (plasma estradiol relative to the controls) (aromatase [1]; [3]) [%] | % recovery estradiol (plasma estradiol relative to the controls) (aromatase [1]; rat, in vivo) [%] | IC50 (aromatase [2]) [nM] |
| --- | --- | --- | --- | --- |
| 7.6 | CCCCn1nnc2ccc(Cn3ccnc3)cc21 [Compound 147, 1-butyl-6-(1H-imidazol-1-ylmethyl)-1H-benzotriazole] | 21 | – | – |
| 8.9 | CC(C)CCn1nnc2ccc(C(c3ccc(Cl)cc3)n3ccnc3)cc21 (stereo not drawn) [Compound 120] | – | – | – |
| 12.5 | Clc1ccc(C(c2ccc3nnn(C4CCCCC4)c3c2)n2ccnc2)cc1 (stereo not drawn) [Compound 117] | 9 | – | – |
| 23.2 | C#CCOn1nnc2ccc(Cn3ccnc3)cc21 [Compound 179] | – | – | – |
| 8 | CCCCCCCOn1nnc2ccc(Cn3ccnc3)cc21 [Compound 206] | – | – | – |
| 18.2 | c1ccc(COn2nnc3ccc(C(c4ccccc4)n4ccnc4)cc32)cc1 (stereo not drawn) [Compound 188] | – | – | – |
| 17 | CCCCCCCCCOn1nnc2ccc(Cn3ccnc3)cc21 [Compound 203] | – | – | – |
| 23.4 | c1ccc(-c2ccc(COn3nnc4ccc(Cn5ccnc5)cc43)cc2)cc1 [Compound 191] | – | – | – |
| 20 | COCCOn1nnc2ccc(Cn3ccnc3)cc21 [Compound 220, 6-(1H-imidazol-1-ylmethyl)-1-(2-methoxyethoxy)-1H-benzotriazole] | – | – | – |
| 7.4 | CCCOn1nnc2ccc(Cn3ccnc3)cc21 [Compound 227, 6-(1H-imidazol-1-ylmethyl)-1-propoxy-1H-benzotriazole monohydrochloride. hemihydrate] | 19 | – | – |
| 11 | CCC(C)On1nnc2ccc(Cn3ccnc3)cc21 (stereo not drawn) [Compound 197] | – | – | – |
| 11 | c1cncc(COn2nnc3ccc(Cn4ccnc4)cc32)c1 [Compound 196] | – | – | – |
| 12 | c1ccc(SCOn2nnc3ccc(Cn4ccnc4)cc32)cc1 [Compound 176] | – | – | – |
| 24.9 | CC(C)n1nnc2ccc(C(c3ccc(Cl)cc3)n3ccnc3)cc21 (stereo not drawn) [Compound 116] | 20 | – | – |
| 36.2 | Cc1cncn1C(c1ccccc1)c1ccc2nnn(OCc3ccccc3)c2c1 (stereo not drawn) [Compound 213] | – | – | – |
| 10 | CCOn1nnc2ccc(Cn3ccnc3)cc21.Cl [Compound 225, 1-ethoxy-6-(1H-imidazol-1-ylmethyl)-1H-benzotriazole monohydrochloride] | 19 | – | – |
| 18 | CCOC(=O)COn1nnc2ccc(Cn3ccnc3)cc21 [Compound 198] | – | – | – |
| 11 | c1ccc(CCOn2nnc3ccc(Cn4ccnc4)cc32)cc1 [Compound 208] | – | – | – |
| 5.2 | c1ccc(COn2nnc3ccc(Cn4ccnc4)cc32)cc1 [Compound 228, 6-(1H-imidazol-1-ylmethyl)-1-(phenylmethoxy)-1H-benzotriazole] | – | – | – |

Continued, molecule first:

| SMILES | IC50 (aromatase [2]; [4]) [nM] | % recovery estradiol (plasma estradiol relative to the controls) (aromatase [1]; [3]) [%] | % recovery estradiol (plasma estradiol relative to the controls) (aromatase [1]; rat, in vivo) [%] | IC50 (aromatase [2]) [nM] |
| --- | --- | --- | --- | --- |
| c1cn(Cc2ccc3nnn(C4CCCCCC4)c3c2)cn1 [Compound 100] | 14.3 | 3 | – | – |
| Cn1nnc2ccc(C(c3cccc(Cl)c3)n3ccnc3)cc21 (stereo not drawn) [Compound 28] | 25.3 | 6 | – | – |
| Cn1nnc2ccc(C(c3ccc(Br)cc3)n3ccnc3)cc21 (stereo not drawn) [Compound 51] | 22.2 | 7 | – | – |
| c1ccc2c(c1)CCCC2n1nnc2ccc(Cn3ccnc3)cc21 (stereo not drawn) [Compound 105] | 19.8 | 14 | – | – |
| OCCCn1nnc2ccc(Cn3ccnc3)cc21 [Compound 109] | 26.2 | – | – | – |
| Clc1ccc(C(c2ccc3nnn(-c4ccccc4)c3c2)n2ccnc2)cc1.O=[N+]([O-])O (stereo not drawn) | – | – | 21 | – |
| Fc1ccc(C(c2ccc3[nH]nnc3c2)n2ccnc2)cc1 (stereo not drawn) [Compound 113] | 18.8 | 4 | – | – |
| CCCCn1nnc2ccc(C(c3ccc(Cl)cc3)n3ccnc3)cc21 (stereo not drawn) [Compound 15] | 22.6 | 2 | – | – |
| CC(C)On1nnc2ccc(C(c3ccccc3)n3ccnc3)cc21 (stereo not drawn) [Compound 2] | 16 | 20 | – | – |
| c1ccc(C(c2ccc3nnn(C4CCCCC4)c3c2)n2ccnc2)cc1 (stereo not drawn) [Compound 104] | 20.6 | 9 | – | – |
| Fc1cccc(Cn2nnc3ccc(Cn4ccnc4)cc32)c1 [Compound 99] | 17.8 | 11 | – | – |
| c1cn(Cc2ccc3nnn(C4CC5CCC4C5)c3c2)cn1 (stereo not drawn) [Compound 103] | 16.3 | 5 | – | – |
| CC(C)n1nnc2ccc(C(c3ccccc3)n3ccnc3)cc21.O=C(O)C(=O)O (stereo not drawn) [Compound 76, 6-[(1H-imidazol-1-yl)phenylmethyl]-1-(1-methylethyl)-1H-benzotriazole ethanedioate(1:1)] | 34.7 | 9 | – | – |
| C=CCn1nnc2ccc(Cn3ccnc3)cc21 [Compound 106] | 24.4 | 8 | – | – |
| Cn1nnc2ccc(C(c3ccccc3)n3ccnc3)cc21 (stereo not drawn) [Compound 90] | 22.7 | 5 | – | – |
| c1cn(Cc2ccc3nnn(CC4CCCCC4)c3c2)cn1 [Compound 97] | 13.1 | 10 | – | – |
| CCCn1nnc2ccc(Cn3ccnc3)cc21 [Compound 89] | 15 | 5 | – | – |
| CC(C)n1nnc2ccc(Cn3ccnc3)cc21 [Compound 87] | 26.9 | 5 | – | – |
| CCOn1nnc2ccc(C(c3ccccc3)n3ccnc3)cc21 (stereo not drawn) [Compound 4] | 16 | – | – | – |

| SMILES | IC50 (aromatase [2]; [4]) [nM] | % recovery estradiol (plasma estradiol relative to the controls) (aromatase [1]; [3]) [%] | % recovery estradiol (plasma estradiol relative to the controls) (aromatase [1]; rat, in vivo) [%] | IC50 (aromatase [2]) [nM] |
| --- | --- | --- | --- | --- |
| Cn1nnc2ccc(C(c3ccccc3)n3ccnc3)cc21 (stereo not drawn) [Compound 7] | 25.7 | 7 | – | – |
| Cn1nnc2ccc(C(c3ccsc3)n3ccnc3)cc21 (stereo not drawn) [Compound 69, 6-[(1H-imidazol-1-yl) (3-thienyl)methyl]-1-methyl-1H-benzotriazole] | 29 | 5 | – | – |
| CCCCOn1nnc2ccc(C(c3ccccc3)n3ccnc3)cc21 (stereo not drawn) [Compound 6] | 12 | – | – | – |
| c1cn(Cc2ccc3nnn(CC4CC4)c3c2)cn1 [Compound 108] | 15.2 | 3 | – | – |
| CCCCn1nnc2ccc(C(c3ccccc3)n3ccnc3)cc21.O=C(O)C(=O)O (stereo not drawn) [Compound 75, 1-butyl-6-[(1H-imidazol-1-yl)phenylmethyl]-1H-benzotriazole ethanedioate(1:1)] | 24.2 | 27 | – | – |
| CCCCOn1nnc2ccc(Cn3ccnc3)cc21.Cl [Compound 226, 1-butoxy-6-(1H-imidazol-1-ylmethyl)-1H-benzotriazole monohydrochloride] | 6.7 | 19 | – | – |
| Clc1ccc(C(c2ccc3nnn(-c4ccccc4)c3c2)n2ccnc2)cc1.O=[N+]([O-])O (stereo not drawn) [mononitrate] | – | – | – | 17.6 |
| CCCCn1nnc2ccc(C(c3cccc(Cl)c3)n3ccnc3)cc21 (stereo not drawn) [Compound 23] | 7.5 | – | – | – |
| Cn1nnc2ccc(C(c3cccc(Br)c3)n3ccnc3)cc21 (stereo not drawn) [Compound 50] | 18.3 | 1 | – | – |
| CCCC(c1ccc2nnn(C)c2c1)n1ccnc1 (stereo not drawn) [Compound 31] | 34.2 | 8 | – | – |
| c1csc(Cn2nnc3ccc(Cn4ccnc4)cc32)c1 [Compound 111] | 14.3 | 19 | – | – |
| COc1ccc(C(c2ccc3nnn(C)c3c2)n2ccnc2)cc1 (stereo not drawn) [Compound 59] | 18 | – | – | – |
| c1cn(Cc2ccc3nnn(C4CCCC4)c3c2)cn1 [Compound 107] | 14.1 | 6 | – | – |
| Cn1nnc2ccc(C(c3ccc(C(F)(F)F)cc3)n3ccnc3)cc21 (stereo not drawn) [Compound 55] | 18.8 | 3 | – | – |
| CCCCn1nnc2ccc(C(c3ccc(F)cc3)n3ccnc3)cc21 (stereo not drawn) [Compound 17] | 18.2 | 7 | – | – |
| Cn1nnc2ccc(C(c3ccc(Cl)cc3)n3ccnc3)cc21 (stereo not drawn) [Compound 30] | 22.2 | 7 | – | – |
| Cn1nnc2ccc(C(c3ccccc3Cl)n3ccnc3)cc21 (stereo not drawn) [Compound 56] | 21.5 | 8 | – | – |
| Clc1ccc(Cn2nnc3ccc(Cn4ccnc4)cc32)cc1 [Compound 91] | 8.8 | – | – | – |
